Laboratory results from the supplement of paper PMC4977894.
Counter-ions that a name gives are not always drawn. ± gives the standard deviation of the averaged measurements.

Key:
[1] = system: Homo sapiens (human subject panel, olfactory perception); assay: perceived odor pleasantness rating (rating 0-100); higher = more pleasant
Summary of the method: (§1)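 Values for familiarity, intensity and pleasantness are averaged over subjects. The panel of 55 healthy people aged 18–50 excluded the six lowest performers and rated each paraffin-oil dilution of a molecule at high and low concentrations. Ratings were made only for stimuli the subject reported smelling, on a slider converted to a 0–100 scale.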

[2] = system: Homo sapiens (human subject panel, olfactory perception); assay: perceived odor familiarity rating (rating 0-100); higher = more familiar
Summary of the method: as §1

[3] = system: Homo sapiens (human subject panel, olfactory perception); assay: perceived odor intensity rating (rating 0-100); higher = stronger perceived smell
Summary of the method: as §1

[4] = odor dilution in paraffin oil: 1/1,000
[5] = odor dilution in paraffin oil: 1/100,000
[6] = odor dilution in paraffin oil: 1/10
[7] = odor dilution in paraffin oil: 1/10,000,000

SMILES | perceived odor pleasantness rating [1, 4] | perceived odor pleasantness rating [1, 5] | perceived odor familiarity rating [2, 4] | perceived odor familiarity rating [2, 5] | perceived odor intensity rating [3, 4] | perceived odor intensity rating [3, 5] | perceived odor pleasantness rating [1, 6] | perceived odor familiarity rating [2, 6] | perceived odor intensity rating [3, 6] | perceived odor pleasantness rating [1, 7] | perceived odor familiarity rating [2, 7] | perceived odor intensity rating [3, 7]
CCOC(=O)c1ccccc1 [Ethyl benzoate] | 57.1 ± 25 | 58.6 ± 24 | 50.5 ± 32 | 43.1 ± 30 | 66.2 ± 24 | 38.4 ± 33 |  |  |  |  |  | 
CCCCCCCCCC(=O)OCC [Ethyl decanoate] | 49.6 ± 24 |  | 38.9 ± 27 |  | 21.2 ± 24 |  | 58.2 ± 26 | 50.9 ± 30 | 59.8 ± 30 |  |  | 
CCOC=O [Ethyl formate] | 48.2 ± 22 |  | 24.9 ± 20 |  | 16.5 ± 26 |  | 36 ± 26 | 43.9 ± 32 | 51.6 ± 35 |  |  | 
CCCCCCC(=O)OCC [Ethyl heptanoate] | 62.6 ± 26 | 55.9 ± 25 | 59.4 ± 27 | 44.3 ± 29 | 69.1 ± 23 | 34.8 ± 28 |  |  |  |  |  | 
CCCCCCCCCCCCCC(=O)OCC [Ethyl myristate] | 42.8 ± 25 |  | 38.1 ± 33 |  | 20.7 ± 24 |  | 50.6 ± 26 | 40.5 ± 27 | 39.1 ± 28 |  |  | 
CCCCCCCC(=O)OCC [Ethyl octanoate] | 66.2 ± 22 | 61.9 ± 22 | 52.7 ± 33 | 52 ± 29 | 54.7 ± 29 | 46.7 ± 31 |  |  |  |  |  | 
C/C=C/C=C/C(=O)OCC [Ethyl sorbate] | 35.3 ± 26 | 54.8 ± 20 | 53.1 ± 29 | 41.5 ± 30 | 75.4 ± 17 | 26.1 ± 27 |  |  |  |  |  | 
CCCCCCCCCCCCCCCCCC(=O)OCC [Ethyl stearate] | 43.4 ± 15 |  | 33.1 ± 24 |  | 17 ± 17 |  | 45.7 ± 25 | 38.3 ± 34 | 46.8 ± 33 |  |  | 
CCCCCCCCCCC(=O)OCC [Ethyl undecanoate] | 50.1 ± 28 |  | 46.8 ± 28 |  | 38.8 ± 28 |  | 52.8 ± 26 | 49.9 ± 34 | 69.9 ± 21 |  |  | 
C=CCc1ccc(OC(C)=O)c(OC)c1 [Eugenyl Acetate] | 63.9 ± 23 | 58 ± 25 | 61.4 ± 28 | 37.7 ± 30 | 52.3 ± 30 | 21.1 ± 28 |  |  |  |  |  | 
O=C(O)/C=C/C(=O)O [Fumaric acid] | 49.5 ± 25 |  | 44 ± 31 |  | 17.1 ± 23 |  | 36.9 ± 24 | 51.9 ± 32 | 58.8 ± 26 |  |  | 
OCc1ccco1 [Furfuryl alcohol] | 39.6 ± 23 | 44.6 ± 24 | 50.3 ± 27 | 33.6 ± 28 | 56.7 ± 29 | 22.8 ± 22 |  |  |  |  |  | 
NCC(=O)O [Glycine] | 53.3 ± 25 |  | 40.8 ± 27 |  | 17.9 ± 23 |  | 59.4 ± 23 | 47.3 ± 28 | 50 ± 28 |  |  | 
COc1ccccc1O [Guaiacol (replicate)] |  | 37.6 ± 25 |  | 47.2 ± 30 |  | 67.4 ± 29 |  |  |  | 36.9 ± 19 | 44 ± 30 | 54.8 ± 28
COc1ccccc1O [Guaiacol] |  | 41.6 ± 26 |  | 47.3 ± 31 |  | 61.8 ± 28 |  |  |  | 40.9 ± 25 | 39.4 ± 28 | 48.6 ± 32
COc1ccccc1OC(=O)Cc1ccccc1 [Guaiacyl phenylacetate] | 37.2 ± 28 |  | 45.1 ± 32 |  | 60.8 ± 28 |  | 42.2 ± 29 | 58.5 ± 28 | 71.5 ± 22 |  |  | 
CCCCCCC(=O)O [Heptanoic Acid] | 21.5 ± 20 | 30.4 ± 25 | 43.8 ± 31 | 36.5 ± 28 | 77.5 ± 23 | 49 ± 32 |  |  |  |  |  | 
